Test results as given in patent EP0085843A1, “Antimycosic agent” (BAYER AG, priority 1982, dated 1983).

Assays:
Candida = assay: Antifungal in-vivo activity (oral) in mouse candidosis; parameters: species or system Mäuse vom Typ SPF-CF1; key to Wirkung (Ueberlebende am 6.Tag p.i.): +++++: = sehr gute Wirkung = 90 % Ueberlebende am 6.Tag p.i.; ++++: = gute Wirkung = 80 % Ueberlebende am 6.Tag p.i.; +++: = Wirkung = 60 % Ueberlebende am 6.Tag p.i.; ++: = schwache Wirkung = 40 % Ueberlebende am 6.Tag p.i.; +: = Spur Wirkung = unter 40% " " " "; k.W.: = keine Wirkung; settings: for Wirkung (Ueberlebende am 6.Tag p.i.): 50 - 100 mg/kg one hour before and seven hours after i.v. infection; for Wirkung compared with known compounds (A), (B), (C), (D): mouse candidosis
Experimental: Mäuse vom Typ SPF-CF1 wurden intravenös mit 1 - 2 x 10^6 logarithmisch wachsenden Candida-Zellen, die in physiologischer Kochsalzlösung suspendiert werden, infiziert. Eine Stunde vor und sieben Stunden nach der Infektion werden die Tiere mit jeweils 50 - 100 mg/kg Körpergewicht der Präparate oral behandelt.
Unbehandelte Tiere starben 3 bis 6 Tage post infektionem. Die Ueberlebensrate am 6.Tag post infektionem betrug bei unbehandelten Kontrolltieren etwa 5 %.

[1] = test system: Dermatophyten, Schimmelpilze, Hefen; assay: Antifungal in-vitro activity, serial dilution test, overall statement; assay type: cell-based
Experimental: Versuchsbeschreibung: • Die in-vitro-Prüfungen wurden im Reihenverdünnungstest mit Keiminokula von durchschnittlich 5 x 10^4 Keimen/ml Substrat durchgeführt. Als Nährmedium dienten • a) für Dermatophyten und Schimmelpilze: Sabouraud's milieu d'epreuve • b) für Hefen: • Fleischextrakt-Traubenzucker-Bouillon.
Die Bebrütungstemperatur betrug 20°C, die Bebrütungsdauer lag bei 24 bis 96 Stunden bei Hefen und 96 Stunden bei Dermatophyten und Schimmelpilzen.

[2] = test system: Trichophyton mentagrophytes; assay: In-vivo activity (local) in experimental guinea pig trichophytosis; parameters: species or system Meerschweinchen; key to Wirkung (Infektionszeichen): +++++: sehr gute Wirkung = keine Infektionszeichen am 12.-15.Tag p.i.; ++++: gute Wirkung = geringe Rötung, vereinzelt Schuppen; +++: Wirkung = Rötung, Schuppung, ohne Haarausfall; ++: schwache Wirkung = Rötung, Schuppung, Haarausfall; +: Spur Wirkung = flächiger Haarausfall, entzündliche Hautreaktion; settings: for Wirkung (Infektionszeichen): 1x daily from day 3 p.i., 15%-ige Lösung in Dimethylsulfoxid : Glycerin = 1 : 4; for Wirkung: trichophytosis model

Compound	Wirkung (Ueberlebende am 6.Tag p.i.) (Candida)	Wirkung compared with known compounds (A), (B), (C), (D) (Candida)	antimykotische Wirkung compared with known compounds (A), (B), (C), (D) [1]	Wirkung (Infektionszeichen) [2]	Wirkung [2]
Cc1ccc(OCC(O)(Cn2cncn2)C(C)(C)C)cc1 (centres unmarked) [(A), reference compound]	k.W.	–	–	–	–
Cc1cc(Cl)ccc1OCC(O)(Cn1cncn1)C(C)(C)C (centres unmarked) [(C), reference compound]	k.W.	–	–	–	–
COC(COc1ccc(Cl)cc1C)(Cn1cncn1)C(C)(C)C (centres unmarked) [Beispiel 1, 2-(4-Chlor-2-methyl-phenoxymethyl)-3,3-dimethyl-2-methoxy-1-(1,2,4-triazol-1-yl)-butan]	+++ (= Wirkung = 60 % Ueberlebende am 6.Tag p.i.)	bessere Wirkung	bessere antimykotische Wirkung	++++	gute Wirkung
COC(COc1ccc(Cl)cc1)(Cn1cncn1)C(C)(C)C (centres unmarked) [Beispiel 2]	++++ (= gute Wirkung = 80 % Ueberlebende am 6.Tag p.i.)	bessere Wirkung	–	++++	gute Wirkung
COC(COc1ccc(Cl)cc1Cl)(Cn1cncn1)C(C)(C)C (centres unmarked) [Beispiel 3]	+++ (= Wirkung = 60 % Ueberlebende am 6.Tag p.i.)	bessere Wirkung	bessere antimykotische Wirkung	++++	gute Wirkung
COC(CCc1ccc(Cl)cc1)(Cn1cncn1)C(C)(C)C (centres unmarked) [Beispiel 4]	+++++ (= sehr gute Wirkung = 90 % Ueberlebende am 6.Tag p.i.)	bessere Wirkung	bessere antimykotische Wirkung	++++	gute Wirkung
COC(CCc1ccc(F)cc1)(Cn1cncn1)C(C)(C)C (centres unmarked) [Beispiel 5]	++++ (= gute Wirkung = 80 % Ueberlebende am 6.Tag p.i.)	bessere Wirkung	bessere antimykotische Wirkung	++++	gute Wirkung
